In ChEMBL document CHEMBL4665659, “Utilizing comprehensive and mini-kinome panels to optimize the selectivity of quinoline inhibitors for cyclin G associated kinase (GAK)” (Bioorg Med Chem Lett, 2019):
Activity calls are given as the source filed them. No cut-off for these calls is given here.

Columns and labels:
[1] = molecular target: Bone morphogenetic protein receptor type-1B (Homo sapiens, UniProt O00238); test: Inhibition of human ALK6 at 1 uM by Kinomescan method
[2] = molecular target: Tyrosine-protein kinase Fyn (Homo sapiens) (UniProt P06241); test: Inhibition of human wild type partial length Fyn (T243 to L534 residues) expressed in bacterial expression system at 1 uM by Kinomescan method
[3] = molecular target: RAF proto-oncogene serine/threonine-protein kinase (Homo sapiens) (UniProt P04049); test: Inhibition of human wild type partial length C-Raf (I330 to T640 residues) expressed in bacterial expression system at 1 uM by Kinomescan method relative to control
[4] = molecular target: T1, Ephrin type-A receptor 1 (Homo sapiens) (UniProt P21709); test: Inhibition of human wild type partial length EphA1 (V588 to I913 residues) expressed in bacterial expression system at 1 uM by Kinomescan method
T1 sequence (whole entry): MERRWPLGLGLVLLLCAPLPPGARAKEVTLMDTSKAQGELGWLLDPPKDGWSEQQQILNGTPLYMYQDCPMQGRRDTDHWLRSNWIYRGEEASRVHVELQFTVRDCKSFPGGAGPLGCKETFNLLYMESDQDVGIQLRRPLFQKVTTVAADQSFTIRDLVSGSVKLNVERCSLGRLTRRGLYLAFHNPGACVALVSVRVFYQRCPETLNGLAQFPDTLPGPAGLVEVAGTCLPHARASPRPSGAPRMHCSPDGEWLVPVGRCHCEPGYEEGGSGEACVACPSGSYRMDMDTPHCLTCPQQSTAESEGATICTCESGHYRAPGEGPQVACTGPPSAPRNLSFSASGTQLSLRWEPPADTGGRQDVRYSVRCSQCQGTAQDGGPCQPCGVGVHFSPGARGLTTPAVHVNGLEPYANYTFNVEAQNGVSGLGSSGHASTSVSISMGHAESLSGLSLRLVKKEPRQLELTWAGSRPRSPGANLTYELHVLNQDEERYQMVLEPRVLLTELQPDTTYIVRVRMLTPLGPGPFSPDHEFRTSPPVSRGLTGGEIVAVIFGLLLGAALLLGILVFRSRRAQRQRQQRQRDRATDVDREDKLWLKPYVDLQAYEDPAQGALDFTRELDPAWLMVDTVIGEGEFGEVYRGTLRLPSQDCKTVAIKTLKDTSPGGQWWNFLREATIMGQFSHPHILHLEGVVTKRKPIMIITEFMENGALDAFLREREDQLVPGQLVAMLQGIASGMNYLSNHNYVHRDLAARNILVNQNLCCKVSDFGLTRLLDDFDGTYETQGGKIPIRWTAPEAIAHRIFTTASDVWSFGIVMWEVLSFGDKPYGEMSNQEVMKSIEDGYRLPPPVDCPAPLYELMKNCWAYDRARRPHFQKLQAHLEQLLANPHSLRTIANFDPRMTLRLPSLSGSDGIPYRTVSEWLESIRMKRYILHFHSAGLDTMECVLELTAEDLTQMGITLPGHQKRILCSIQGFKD

RAF proto-oncogene serine/threonine-protein kinase (Homo sapiens), sequence (P04049 whole entry, the tested form may be a part): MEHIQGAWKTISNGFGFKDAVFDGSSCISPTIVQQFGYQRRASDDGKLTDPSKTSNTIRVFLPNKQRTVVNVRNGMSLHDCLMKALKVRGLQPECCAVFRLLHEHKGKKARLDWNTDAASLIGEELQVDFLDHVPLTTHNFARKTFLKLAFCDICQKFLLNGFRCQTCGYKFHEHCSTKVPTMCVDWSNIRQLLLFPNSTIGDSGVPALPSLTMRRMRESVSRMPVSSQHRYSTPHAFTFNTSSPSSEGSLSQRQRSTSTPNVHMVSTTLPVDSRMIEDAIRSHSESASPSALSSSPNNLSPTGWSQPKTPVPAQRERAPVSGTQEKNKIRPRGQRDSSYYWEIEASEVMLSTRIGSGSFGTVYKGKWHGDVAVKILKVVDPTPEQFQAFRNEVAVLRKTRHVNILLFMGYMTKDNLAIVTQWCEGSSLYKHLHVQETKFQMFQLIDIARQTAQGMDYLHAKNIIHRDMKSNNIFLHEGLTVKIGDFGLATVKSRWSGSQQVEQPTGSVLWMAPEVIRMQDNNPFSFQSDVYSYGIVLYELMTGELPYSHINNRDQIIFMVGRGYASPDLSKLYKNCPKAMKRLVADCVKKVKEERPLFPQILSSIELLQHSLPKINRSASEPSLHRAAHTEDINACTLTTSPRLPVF
Tyrosine-protein kinase Fyn (Homo sapiens), sequence (P06241 2-537 limits assumed): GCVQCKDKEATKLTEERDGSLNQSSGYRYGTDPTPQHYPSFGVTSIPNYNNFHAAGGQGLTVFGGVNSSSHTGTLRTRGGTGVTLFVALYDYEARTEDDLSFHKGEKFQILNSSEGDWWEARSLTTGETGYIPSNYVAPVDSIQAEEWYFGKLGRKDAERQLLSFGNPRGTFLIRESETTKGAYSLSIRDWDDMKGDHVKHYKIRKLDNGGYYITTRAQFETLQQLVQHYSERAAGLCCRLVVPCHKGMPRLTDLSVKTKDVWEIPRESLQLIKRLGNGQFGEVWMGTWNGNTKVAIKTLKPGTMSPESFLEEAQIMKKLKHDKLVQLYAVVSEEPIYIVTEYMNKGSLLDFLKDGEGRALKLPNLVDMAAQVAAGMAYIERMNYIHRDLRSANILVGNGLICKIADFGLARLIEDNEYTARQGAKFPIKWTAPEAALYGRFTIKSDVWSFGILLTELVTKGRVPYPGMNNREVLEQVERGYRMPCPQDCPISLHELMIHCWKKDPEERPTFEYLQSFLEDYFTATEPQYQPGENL
Bone morphogenetic protein receptor type-1B, sequence (O00238 whole entry, the tested form may be a part): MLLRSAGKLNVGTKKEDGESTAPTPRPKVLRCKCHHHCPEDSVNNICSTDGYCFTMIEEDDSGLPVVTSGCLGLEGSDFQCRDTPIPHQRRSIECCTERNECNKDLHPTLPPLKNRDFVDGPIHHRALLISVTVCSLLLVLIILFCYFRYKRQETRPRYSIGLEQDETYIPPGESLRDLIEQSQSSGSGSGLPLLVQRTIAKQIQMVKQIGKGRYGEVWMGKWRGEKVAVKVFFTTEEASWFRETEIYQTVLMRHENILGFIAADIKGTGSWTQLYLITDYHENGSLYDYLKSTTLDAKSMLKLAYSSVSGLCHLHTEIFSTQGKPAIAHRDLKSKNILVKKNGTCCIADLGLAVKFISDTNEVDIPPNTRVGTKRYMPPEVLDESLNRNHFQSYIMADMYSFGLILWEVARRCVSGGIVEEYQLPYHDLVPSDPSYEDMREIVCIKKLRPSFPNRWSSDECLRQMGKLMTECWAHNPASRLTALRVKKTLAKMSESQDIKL

Structure (SMILES): COc1cc(Nc2ccnc3cc(Cl)ccc23)cc(OC)c1OC
- inhibition [1]: Active
- inhibition [2]: Active
- inhibition [3]: 70%
- inhibition [4]: Active

Structure (SMILES): COc1cc(Nc2ccnc3cc(C#N)ccc23)cc(OC)c1OC
- inhibition [1]: Active
- inhibition [2]: Active
- inhibition [3]: 70%
- inhibition [4]: Active

Structure (SMILES): COc1cc(Nc2ccnc3cc(I)ccc23)cc(OC)c1OC
- inhibition [1]: Active
- inhibition [2]: Active
- inhibition [3]: 70%
- inhibition [4]: Active

Structure (SMILES): COc1cc(Nc2ccnc3cc(C(F)(F)F)ccc23)cc(OC)c1OC
- inhibition [1]: Active
- inhibition [2]: Active
- inhibition [3]: 70%
- inhibition [4]: Active

Structure (SMILES): COc1cc(Nc2ccnc3cc(Br)ccc23)cc(OC)c1OC
- inhibition [1]: Active
- inhibition [2]: Active
- inhibition [3]: 70%
- inhibition [4]: Active
